Marks after values point to notes of the source that are not given here.
Key:
rats with stroke [1] = assay: Immediate treatment after stroke onset, neural function scores (Zealonga method, 0 no loss to 5 death); assay type: in vivo, SD rats; conditions: 1 μmol/kg, 24 h after awake
Protocol: The in vivo anti-stroke activity of the present invention was represented by neural function scores, with a lower score indicating higher activity. A 10% chloral hydrate solution (400 mg/kg) was injected intraperitoneally into SD male rats (250-300 g) for anesthesia. An open incision of 2 cm in length was longitudinally made slightly on the right to the center of the neck, and the right common carotid artery trunk, carotid external artery and carotid internal artery were dissected along the margin of the inner side of sternocleidomastoid muscles. The open incisions in the carotid internal artery and the proximal end of the common carotid artery were occluded respectively with noninvasive arterial clips. A small open incision was made across the carotid external artery, and the distal end of the carotid external artery was ligated. The arterial clip at the proximal end of the carotid external artery was released, and 10 μl blood was drawn before the proximal end of the common carotid artery was again occluded with the noninvasive arterial clip. The 10 μl blood drawn was placed in a 1 mL EP vial and kept at RT for 30 min for coagulation of blood, and then transferred into a −20° C. refrigerator for 1 h to allow coagulation. After 1 h, the blood clots were taken out, into which 1 mL saline was added, and then broken into uniform microthrombus by using a steel spatula. The microthrombus suspension was then transferred to a 1 mL injector until use. At the same time when the clip on the carotid internal artery of the rat was released, 1 mL thrombus suspension in the injector was slowly injected from the carotid external artery of the rat to its proximal end, and the suspension was injected into the brain of the rat through the carotid internal artery. Subsequently, the proximal end of the carotid external artery was ligated, the arterial clips on the carotid internal artery and the common carotid artery were released, and blood flow was restored. The jugular common vein of the rats was dissected. The vein was immediately ligated, 3 drops of penicillin was dropped at the wound site, the wound was stitched up, and the animals were allowed to come around, as the sham operation group. Or injection of urokinase in normal saline (positive control group, at a dosage of 20000 IU/kg), normal saline (blank control group, at a dosage of 3 ml/kg), TMMZ in normal saline (component control group, at a dosage of 1 μmol/kg), a thrombolytic peptide ARPAK (SEQ. ID NO. 4), GRPAK (SEQ. ID NO. 5), RPAK (SEQ. ID NO. 3) or PAK in normal saline (component control group, at a dosage of 1 μmol/kg), or one of compounds Ia-Il in normal saline (at a dosage of 0.1 μmol/kg) was carried out. 24 h after the rats were awake, the degree of damage in the neural function was evaluated by the Zealonga method. A score of 0 indicated no sign of loss in neural function, 1 indicated the front limbs on the undamaged side could not stretch out, 2 indicated walking toward the undamaged side, 3 indicated tail-chasing walking in circles toward the undamaged side, 4 indicated involuntary walking with disturbance of consciousness, and 5 indicated death.

rats with stroke [2] = assay: Cerebral infarction volume after immediate treatment of stroke (TTC staining); assay type: in vivo, SD rats; conditions: 1 μmol/kg; immediate treatment; n = 10
Protocol: After the rats were awake for 24 h and assessed for their degree of damage in neural function in Experimental example 6, they were anesthesized with urethane followed by immediate decapitation and removal of the brain. Brain tissues were kept in a −20° C. refrigerator for 2 h, and coronal sections of about 2 mm were successively sliced from the prefrontal end for a total of 6 sections, and then placed into a 2% TTC solution to incubate in darkness at 37° C. for 30 min. The color change in brain sections was observed: normal brain tissues were stained red by TTC, while ischemic brain tissues, i.e., brain tissues with infracts, appeared in a white color. Photographs were taken by using a digital camera and processed with SPSS statistics software, and the volume of infarction in brain tissues and the volume of normal brain tissues in the coronal sections were calculated.

[3] = tested on: NO free radicals (acetylcholine induced vasodilation); assay: NO radical scavenging: inhibition of acetylcholine induced vasodilation of aorta rings; parameters: species or system Wistar rats; conditions: final concentration 5×10^−6 M; n = 6
Protocol: Male Wistar rats weighing 250 to 300 g were starved for 12 h before operation with free access to drinking water, and sacrificed by cervical dislocation. Thoracotomy was immediately carried out and thoracic aorta was taken out, connective tissues attached thereto were dissected, and vessels were cut into aorta rings with a length of 3 to 5 mm and placed into a perfusion bath. The bath contained 15 ml Krebs-Henseleit solution and was kept at a constant temperature of 37° C., into which 95% O2-5% CO2 gas was charged. The anchor to which the aorta rings were immobilized was connected to a tension transducer, and vasomotion curves were recorded on a dual-trace recorder at a paper speed of 1 mm/min. With the static tension adjusted to 1.0 g and 30 min of equilibration, norepinephrine at a final concentration of 10^−8 M was dosed to allow the aorta to contract for preexcitation. Norepinephrine was washed off, followed by 30 min of equilibration, and norepinephrine was added into the bath to a final concentration of 10^−8 M. When the contraction tension was steady at a plateau level, 20 μl normal saline (blank), a 20 μl solution of any one of compounds Ia to Il in normal saline (at a final concentration of 5×10^−6 M), or a 20 μl solution of NO free radical scavenger (1,3-dioxo-2-(4′-oxyacetoxyl-phenyl)-4,4,5,5-tetramethylimidazoline, TMMZ) in normal saline (at a final concentration of 5×10^−6 M) was added into the bath. When stabilized, a 20 μl acetylcholine in normal saline was added (at a final concentration of 10^−6 M). The NO scavenging ability of the drugs was expressed as a percentage of inhibition of acetylcholine induced vasodilation.

thrombus [4] = assay: In vivo anti-thrombus experiment (arteriovenous cannula with thread); parameters: species or system SD rats; conditions: n = 11
Protocol: SD rats (male, 220 to 230 g) were randomly divided into groups with 11 rats in each group. The rats were fed at a resting state for 1 day and fasted overnight. […] After 30 min, the rats were anesthetized with a 20% urethane solution, and the right carotid artery and the left carotid vein were dissected. A cannula was filled with sodium heparin in normal saline, and one end thereof was inserted into the left vein, while the other end was injected with a certain amount of sodium heparin for anticoagulation with an injector and then inserted into the right artery. Blood flew from the right artery to the left vein through the polyethylene tubing, and the thread attached with thrombus was taken out after 15 min and the weight thereof was recorded. The wet thrombus weight was determined by subtracting the thread weight from the total weight.

[5] = tested on: thrombus from rat arterial blood; assay: In vitro thrombolysis; parameters: species or system SD rats; conditions: 100 nM, 2 h at 37° C., n = 6
Protocol: SD rats (male, 350 to 400 g) were anaesthetized by intraperitoneal injection of a urethane solution at a dosage of 1200 mg/kg. The anaesthetized rats were fixed in a supine position, and the right common carotid artery was dissected, clamped at the proximal end with an arterial clip, and penetrated with a suture at the proximal and distal ends, respectively. The suture at the distal end is clipped tightly by a hemostatic clamp at the fur. Cannulation was performed at the distal end, the artery clamp was removed, and the total arterial blood was discharged into a 50 ml container previously treated with silicone oil. […] rat arterial blood was injected into a vertically fixed glass tube (20 mm in length, with an inner diameter of 4 mm and an outer diameter of 5 mm, sealed with a rubber stopper at the bottom), into which was immediately inserted a thrombus immobilization screw made of stainless steel. […] 40 min after the blood was coagulated, the rubber stopper at the bottom of the glass tube was removed, the stem of the thrombus immobilization screw was nipped by forceps, and the thrombus-wrapped thrombus immobilization screw was carefully taken out from the glass tube. The screw was then suspended and dipped in triple-distilled water to remove excessive blood, and accurately weighed after 1 h. The thrombus was suspended in 8 mL of normal saline, or a solution of compounds Ia-Il in normal saline (at a concentration of 100 nM), or a solution of ARPAK (SEQ. ID NO. 4), GRPAK (SEQ. ID NO. 5), RPAK (SEQ. ID NO. 3) or PAK in normal saline (at a concentration of 100 nM), or a solution of urokinase in normal saline (100 IU/mL), then shaked at 37° C. in a thermostatic shaker (63 r/min), and removed after 2 h and accurately weighed to determine the weight of the thrombus.

thrombus [6] = assay: In vivo thrombolysis, rat arteriovenous bypass thrombolysis model; parameters: species or system SD rats; conditions: 1 μmol/kg, after 1 h, n = 10
Protocol: SD rats (male, 220 to 230 g) were anaesthetized by intraperitoneal injection of a urethane solution at a dosage of 1200 mg/kg. The anaesthetized rats were fixed in a supine position, and the right common carotid artery was dissected, clamped at the proximal end with an arterial clip, and penetrated with a suture at the proximal and distal ends, respectively. The suture at the distal end is clipped tightly by a hemostatic clamp at the fur. Cannulation was performed at the distal end, the arterial clamp was removed, and about 1 ml arterial blood was discharged into a 1 ml eppendorf. 0.1 ml rat arterial blood was injected into a vertically fixed glass tube (15 mm in length, with an inner diameter of 2.5 mm and an outer diameter of 5.0 mm, sealed with a rubber stopper at the bottom), into which was immediately inserted a thrombus immobilization screw made of stainless steel. […] 15 min after the blood was coagulated, the rubber stopper at the bottom of the glass tube was removed, the stem of the thrombus immobilization screw was nipped by forceps, and the thrombus-wrapped thrombus immobilization screw was carefully taken out of the glass tube and then accurately weighed.
A bypass cannula was composed of 3 segments. The middle segment was a polyethylene tubing having a length of 60.0 mm and an inner diameter of 3.5 mm. The segments on both ends were similar polyethylene tubes having a length of 100.0 mm, an inner diameter of 1.0 mm and an outer diameter of 2.0 mm, one end of which was pulled to form a tip, with an outer diameter of 1.0 mm, that could be inserted into the rat carotid artery or vein, and the other end of which was sheathed by a polyethylene tube having a length of 7.0 mm and an outer diameter of 3.5 mm (thickened in order to be inserted into the polyethylene tubing of the middle segment). The inner wall of the 3-segment cannula was entirely silylated (with 1% silicone oil in ethyl ether). The thrombus-wrapped thrombus immobilization screw was placed into the polyethylene tubing of the middle segment, and both ends of the tubing sheathed the thickened ends of the two polyethylene tubes. The cannula was filled with a heparin solution in normal saline (50 IU/kg) through the tip end by using an injector and was ready for use. The trachea of the anaesthetized rat was then dissected and tracheal cannulation was performed. The left external carotid vein of the rat was dissected, and penetrated with a suture at the proximal and distal ends, respectively. An uneven open incision was careful made on the exposed left external carotid vein, and the tip of the bypass cannula prepared as described above was inserted into the proximal end of the open incision in the left external carotid vein, away from the stem of the thrombus immobilization screw in the middle segment of the bypass cannula (which accommodated the accurately weighed thrombus immobilization screw). A precise amount of heparin in saline (50 IU/kg) was injected through the tip at the other end by using an injector. At this moment, without removing the injector from the ethylene tube, the tubing between the injector and the polyethylene tube was clamped with forceps. The blood flow was stopped by clamping the proximal end of the right common carotid artery with an arterial clip, and an uneven open incision was cut carefully across the common carotid artery near the clip. The injector was pulled out of the tip of the polyethylene tube, and the tip of the polyethylene tube was then inserted into the proximal end of the artery open incision. Both ends of the bypass cannula were fixed to the artery or vein with #4 sutures. […]

For `CC1(C)N([O])C(c2ccc(OCC(=O)O)cc2)=[N+]([O-])C1(C)C` [TMMZ, 1,3-dioxo-2-(4′-oxyacetoxy-phenyl)-4,4,5,5-tetramethylimidazoline, reference compound], the “Neural function scores (Mean ± SD)” value (rats with stroke [1]; n = 10) was 2.83 ± 0.75 ^a, the “Percentage of infarction volume (Mean ± SD %)” value (rats with stroke [2]) was 22.96 ± 2.43 ^a % and the “Percentage of inhibition (Mean ± SD %) of vasodilatation induced by acetylcholine” value [3] was 15.47%.
`CC(=O)Oc1ccccc1C(=O)O` [aspirin, reference compound] was tested, and the “Wet weight of thrombus (Mean ± SD mg)” value (thrombus [4]; aspirin 33 mg/kg by gavage) was 12.85 ± 2.49 ^a mg.
With “Ala-Arg-Pro-Ala-Lys (ARPAK) [ARPAK (SEQ. ID NO. 4), thrombolytic peptide, component control, reference compound]” the “Weight reduction in thrombus (Mean ± SD mg)” value [5] was 26.35 ± 3.10 mg, the “Percentage of infarction volume (Mean ± SD %)” value (rats with stroke [2]) was 22.00 ± 2.20 ^a % and the “Weight reduction in thrombus (Mean ± SD mg)” value (thrombus [6]) was 15.20 ± 2.55 mg.
In the case of “Arg-Gly-Asp-Phe (RGDF) [RGDF (SEQ. ID NO. 13), targeting peptide, reference compound]”, the “Wet weight of thrombus (Mean ± SD mg)” value (thrombus [4]; 10 μmol/kg by gavage) is reported as 19.55 ± 2.21 mg.
In the case of “Arg-Gly-Asp-Ser (RGDS) [RGDS (SEQ. ID NO. 11), targeting peptide, reference compound]”, the “Wet weight of thrombus (Mean ± SD mg)” value (thrombus [4]; 10 μmol/kg by gavage) is reported as 20.02 ± 2.35 mg.
With “Arg-Gly-Asp-Val (RGDV) [RGDV (SEQ. ID NO. 12), targeting peptide, reference compound]” the “Wet weight of thrombus (Mean ± SD mg)” value (thrombus [4]; 10 μmol/kg by gavage) was 21.26 ± 2.07 mg.
With “Arg-Pro-Ala-Lys (RPAK) [RPAK (SEQ. ID NO. 3), thrombolytic peptide, component control, reference compound]” the “Neural function scores (Mean ± SD)” value (rats with stroke [1]; n = 10) was “did not exhibit anti-stroke activity”, the “Neural function scores (Mean ± SD)” value (rats with stroke [1]; n = 10, listed as RPAKI (SEQ. ID NO. 3)) was 2.38 ± 0.97 ^a and the “Weight reduction in thrombus (Mean ± SD mg)” value [5] was 26.01 ± 3.11 mg. For the same molecule, the “Percentage of infarction volume (Mean ± SD %)” value (rats with stroke [2]) was 22.11 ± 2.25 ^a % and the “Weight reduction in thrombus (Mean ± SD mg)” value (thrombus [6]) was 15.67 ± 2.61 mg.
For “Gly-Arg-Pro-Ala-Lys (GRPAK) [GRPAK (SEQ. ID NO. 5), thrombolytic peptide, component control, reference compound]”, the “Weight reduction in thrombus (Mean ± SD mg)” value [5] was 15.47 ± 2.61 mg, the “Percentage of infarction volume (Mean ± SD %)” value (rats with stroke [2]) was 21.77 ± 2.46 ^a % and the “Weight reduction in thrombus (Mean ± SD mg)” value (thrombus [6]) was 15.47 ± 2.61 mg.
For Pro-Ala-Lys [PAK, reference compound], the “Weight reduction in thrombus (Mean ± SD mg)” value [5] was 26.67 ± 3.20 mg, the “Percentage of infarction volume (Mean ± SD %)” value (rats with stroke [2]) was 22.07 ± 2.40 ^a % and the “Weight reduction in thrombus (Mean ± SD mg)” value (thrombus [6]) was 15.00 ± 2.61 mg.
